Patent US10704122B2, “Simple chemical method for the separation of rare earth metals” (THE TRUSTEES OF THE UNIVERSITY OF PENNSYLVANIA, priority 2014, dated 2020)

Assays:
[1] = Air stability observation; assay type: physicochemical; settings: solid and solution states
[2] = Solubility in benzene quantified by 1H NMR of saturated C6D6 solutions; assay type: physicochemical; settings: 1H NMR against ferrocene internal standard
Procedure: The absence of mixed-metal dimer formation prompted a search for conditions where the dimerization of Nd(TriNOx)THF could be exploited for solubility differences between the Nd and Dy species. […] These solubilities were quantified by ^1H NMR spectroscopy, where saturated C6D6 solutions of the complexes were prepared and measured against a ferrocene internal standard.

Row | solubility in benzene [2] [mM] | Molecule | air stability [1]
1 |  | CC(C)(C)N(O)c1ccccc1CN(Cc1ccccc1N(O)C(C)(C)C)Cc1ccccc1N(O)C(C)(C)C [H3TriNOx, tris(2-tert-butylhydroxylaminato)benzylamine] | air stable in both the solid and solution states
2 | 60 | Nd[(2-(^tBuNOH)CH2—C6H4)3N]THF [Nd(TriNOx)THF] | 
3 | 1.2 | Dy[(2-(^tBuNOH)CH2—C6H4)3N]THF [Dy(TriNOx)THF] | 
